In publication PMC10043283, “Neuraminidase 1 promotes renal fibrosis development in male mice” (Nature Communications, 2023):
Read-outs that look alike come from different tables or passages of the source.

Molecular target: T1, NEU1 (neuraminidase 1) (Homo sapiens, UniProt Q99519)
T1 construct: recombinant human NEU1 protein
Assay: SPR (Biacore T200, NEU1 immobilized on CM5 chip)
Assay type: binding

| Kd (read-out: Kd) [nM] | SMILES | Kd [nM] |
| --- | --- | --- |
| 52300 | O=C(/C=C/c1ccc(O)c(O)c1/C=C/c1ccc(O)c(O)c1)O[C@H](Cc1ccc(O)c(O)c1)C(=O)O [SaA, salvianolic acid A] | – |
| – | O=C(/C=C/c1ccc(O)c(O)c1)O[C@H](Cc1ccc(O)c(O)c1)C(=O)O [rosmarinic acid] | 141 |
| 21.6 | O=C(/C=C/c1ccc(O)c2c1[C@H](C(=O)O[C@H](Cc1ccc(O)c(O)c1)C(=O)O)[C@@H](c1ccc(O)c(O)c1)O2)O[C@H](Cc1ccc(O)c(O)c1)C(=O)O [SaB, salvianolic acid B] | – |
